Results: US8338424B2, “Guanidine-containing compounds useful as muscarinic receptor antagonists” (Theravance, Inc., priority 2007, dated 2012)

Tests used:
rats (Sprague-Dawley) [1] = test: Rat Einthoven assay (bronchoprotection against MCh); type: in vivo; conditions: for ID50 (potency): 1.5 hrs post-dose
Procedure: All test compounds are diluted in sterile water and are dosed via the inhalation route (IH). The rats (Sprague-Dawley, male, 250-350 g) are exposed to the aerosol generated from an LC Star Nebulizer Set and driven by a mixture of gases (5% CO2/95% atmospheric air). Each test compound solution is nebulized over a 10 minute time period in a pie shaped dosing chamber capable of holding six rats. At predetermined time points after inhalation of compound, the Einthoven assay is performed.
Thirty minutes prior to the start of pulmonary evaluation, the animals are anesthetized with inactin (thiobutabarbital, 120 mg/kg IP). The jugular vein is catheterized with saline filled polyethylene catheters (PE-50) and used to infuse MCh. The trachea is then dissected and cannulated with a 14G needle and used for rat ventilation during pulmonary evaluation. Once surgery is complete, rats are ventilated using a piston respirator set at a stroke volume of 1 ml/100 g body weight but not exceeding 2.5 ml volume, and at a rate of 90 strokes per minute.
The changes in pressure that occur with each breath are measured. Baseline values are collected for at least 2.5 minutes then rats are challenged non-cumulatively with 2-fold incremental increases of the bronchoconstrictor MCh (5, 10, 20, 40 and 80 μg/ml). The MCh is infused for 2.5 minutes from a syringe pump at a rate of 2 mL/kg/min. The animals are euthanized upon completion of the studies.
Changes in ventilation pressure (cm H20) in treated animals are expressed as % inhibition of MCh response relative to control animals.
Standard muscarinic antagonists were evaluated in the rat Einthoven assay 1.5 hrs post-dose.
Standards tiotropium and ipratropium were also evaluated 24 hr and/or 6 hr post-dose in the rat Einthoven assay. […] The observed loss of activity at this time point (6 hr) is consistent with its relatively short duration of action in the clinic.

rats (Sprague-Dawley) [2] = test: Rat antisialagogue assay (pilocarpine-induced salivation); type: in vivo; conditions: evaluated at 1, 6, and 24 hr post-dose
Procedure: Rats (Sprague-Dawley, male, 250-350 g) are dosed, anesthetized and cannulated as described for Assay 3. At predetermined time points and after surgery, animals are placed on their dorsal side at a 20° incline with their head in a downward slope. A pre-weighed gauze pad is inserted in the animal's mouth and the muscarinic agonist pilocarpine (PILO) (3 mg/kg, iv.) is administered. Saliva produced during 10 minutes post-PILO is measured gravimetrically by determining the weight of the gauze pad before and after PILO. Antisialagogue effects are expressed as % inhibition of salivation relative to control animals.
The rat antisialagogue assay was developed to assess systemic exposure and calculate the lung selectivity index (LSI) of test compounds. The standard, tiotropium, was evaluated in this model at 1, 6, and 24 hr post-dose. […] This finding is consistent with the peak effects observed in the Einthoven assay.
This model is a modified version of the procedure described in Rechter, “Estimation of anticholinergic drug effects in mice by antagonism against pilocarpine-induced salivation” Ata Pharmacol Toxicol 24:243-254 (1996). The mean weight of saliva in vehicle-treated animals, at each pre-treatment time, is calculated and used to compute % inhibition of salivation, at the corresponding pre-treatment time, at each dose.

SMILES	fold less potent 6-hr post-dose compared to 1.5 hr potency (rats (Sprague-Dawley) [1]; 6-hr post-dose, 10 and 30 μg/ml)	ID50 (potency) (rats (Sprague-Dawley) [1]; inhalation) [µg/mL]	6 hr versus 24 hr potency values (rats (Sprague-Dawley) [1]; 6 hr and 24 hr post-dose)	fold more potent at 6 hr and 24 hr compared to 1.5 hr potency (rats (Sprague-Dawley) [1]; 6 hr and 24 hr post-dose)	time of peak bronchoprotection post-dose (rats (Sprague-Dawley) [1]; inhalation) [h]	time post dose at which most potent at inhibiting pilocarpine-induced salivation (rats (Sprague-Dawley) [2]) [h]
CC(C)[N+]1(C)[C@@H]2CC[C@H]1C[C@@H](OC(=O)C(CO)c1ccccc1)C2 (some centres unmarked) [ipratropium]	about 3 fold	4.4				
C[N+]1(C)CCC(OC(=O)C(O)(c2ccccc2)C2CCCC2)C1 (centres unmarked) [glycopyrrolate]		15				
C[N+]1(C)[C@@H]2C[C@@H](OC(=O)C(O)(c3cccs3)c3cccs3)C[C@H]1[C@@H]1O[C@@H]12 [tiotropium]		6	not significantly different from each other	about 2 fold	6	6
